The values that follow come from US20220062299A1, “USE OF GLUCOCORTICOID STEROIDS IN PREVENTING AND TREATING CONDITIONS OF MUSCLE WASTING, AGING AND METABOLIC DISORDER” (NORTHWESTERN UNIVERSITY, priority 2018, published 2022).

In one assay the test system is aging Wildtype (WT) mice. The assay is described as follows: Aging wildtype mice, 40 weeks weekly prednisone. The assay is classed as in vivo, mouse. As to the method:
Dosing of metabolic and endocrine biomarkers. Glycogen was quantitated using the Glycogen Assay Kit (#ab65620; Abcam, Cambridge, Mass.) from approximately 25 mg frozen-pulverized whole tissue, following manufacturer's instructions and internal standards for calculating μg/mg values. For measurement of whole-tissue ATP/NAD^+ levels, approximately 25 mg frozen-pulverized tissue was extracted in 10% perchloric acid and neutralized in 0.75 M K2CO3, as previously described (Ramsey et al., 2009). NAD+ and ATP were measured by high-pressure liquid chromatography (HPLC) with Shimadzu LC-20A pump (Shimadzu Scientific Instr Inc, Addison, Ill.) and UV-VIS detector, using a Supelco LC-18-T column (15 cm×[…]; #58970-U; Millipore-Sigma, St Louis, Mo.). […] ATP and NAD^+ eluted as sharp peaks at 3 and 14 minutes, respectively, and were normalized to tissue weight of frozen liver tissue for calculating pmol/mg values. Corticosterone was measured in mouse serum and cortisol was measured in human serum using dedicated ELISA kits (#ADI-900-097, Enzo Life Science, Farmingdale, N.Y.; #K7430-100, BioVision, Milpitas, Calif.) according to manufacturer's instructions and internal standards to calculate ng/ml values. Insulin levels were quantitated in mouse and human serum with species-specific ELISA kits (#10-1247-01 (mouse-specific); #10-1113-01 (human-specific); Mercodia, Uppsala, Sweden), following manufacturer's instructions and internal standards to calculate ng/ml values. Free fatty acids were quantitated using Enzychrom Free Fatty Acid Assay kit (#EFFA-100; BioAssay Systems, Hayward, Calif.), following kit's instructions and standards to calculate μM (serum) and nmol/mg (tissue) values. For ketone body dosing, beta-hydroxybutyrate was quantitated using a dedicated colorimetric assay kit (#700190; Cayman Chemical, Ann Arbor, Mich.), following manufacturer's instructions and standards to calculate μM (serum) and nmol/mg (tissue) values. […] Colorimetric reactions were quantitated using a Synergy HTX multi-mode plate reader (BioTek®, Winooski, Vt.) and averaging four reads/sample at appropriate wavelengths. […]
Histology. […] Myofiber/adipocyte CSA quantitation was conducted on 400 myofibers/adipocytes per tissue per mouse. […] Area quantitation was performed by means of ImageJ (Schneider et al., 2012). Sample processing, imaging and CSA quantitation were conducted blinded to treatment groups.
Muscle function, whole-body plethysmography, echocardiography. Forelimb grip strength was monitored using a meter (Cat #1027SM; Columbus Instruments, Columbus, Ohio) blinded to treatment groups. […]

For assay [1], the system named is isolated dystrophic myofibers. As to the kind of experiment: 2-NBDG uptake assay in live myofibers. The assay is classed as in vivo, mouse. As to conditions: mdx mice; weekly prednisone. As to the method: 2-NBDG uptake assay and glycemia/lactate monitoring. 2-NBDG uptake assay in live myofibers was conducted adapting previously reported conditions (Zou et al., 2005). FDB muscles were collected and carefully treated with collagenase type II and hand pipetting to liberate single myofibers, following reported procedures (Demonbreun and McNally, 2015). Myofibers from two FDB muscles were collected in 1 ml Ringer's solution (for 1 l, 7.2 g NaCl, 0.17 g CaCl2, 0.37 g KCl; pH, 7.4). 200 μl of myofiber suspension were dispensed per well of chambered coverglass (#155382; Thermo Fisher, Waltham, Mass.) and imaged as baseline condition for both transmitted light (1 ms integration) and green fluorescent channels (100 ms integration) at the Zeiss Axio Observer A1 microscope, using 20× short-range objective and the ZEN 2 software (version 2011; Zeiss, Jena, Germany). […] 2-NBDG uptake was quantitated as relative fluorescent units, calculated as intra-myofiber fluorescence after incubation subtracted of average baseline fluorescence. Fluorescence intensity was quantitated through serial analysis of acquired images (3 areas of approximately 85 μm^2 were analyzed for average fluorescence value per myofiber; >10 myofibers were analyzed per mouse) with ImageJ software (Schneider et al., 2012). […]

[2] abbreviates: aging WT mice, weekly prednisone, 40 weeks.

In the case of `C[C@]12C=CC(=O)C=C1CC[C@@H]1[C@@H]2C(=O)C[C@@]2(C)[C@H]1CC[C@]2(O)C(=O)CO` [prednisone, Prednisone], the “grip strength, tetanic and specific force, and muscle mass (myofiber CSA)” value in the assay on aging Wildtype (WT) mice (aged WT mice, weekly prednisone, 40 weeks) is on record as “improved”. Besides, the “levels of ATP, NAD+ and glycogen in muscle and heart tissues” value in the assay on aging Wildtype (WT) mice (aging WT mice, weekly prednisone 1 mg/kg i.p., 40 weeks from the age of 6 weeks) is “increased”. Besides, in the assay with aging Wildtype (WT) mice (setting [2]), the “parameters of cardiac contractile function (echocardiography)” value was “improved” and the “parameters of respiratory function (whole-body plethysmography)” value was “improved”. Further, the “myogenic glucose uptake (2-NBDG in isolated myofibers)” value in assay [1] was “enhanced”.
